EP1561465A2, “Methods of use of fluoroquinolone compounds against bacteria” (LG Life Sciences, Ltd., priority 1999, dated 2001)
In brackets after ≈: the same amount, converted by molar mass. Like-named read-outs stand apart in the source and are kept apart here.

Key:
Salmonella spp. = assay: MIC by agar dilution (NCCLS M7-A4), 288 enteropathogenic isolates, eight quinolones; type: cell-based; conditions: for MIC: ciprofloxacin MIC ≥[…], read-out: MIC; for % Susceptible / MIC50 / MIC90 / MIC Range: Salmonella spp. (n = 106)
Campylobacter jejuni [1] = assay: MIC by agar dilution (NCCLS M7-A4), 5% sheep blood, microaerophilic 48 h; type: cell-based; conditions: Campylobacter jejuni (n=91)
Aeromonas spp. = assay: MIC by agar dilution (NCCLS M7-A4), 288 enteropathogenic isolates, gemifloxacin and 15 other antimicrobials; type: cell-based; conditions: Aeromonas spp. N= 16
Escherichia coli = assay: MIC by agar dilution (NCCLS), 322 nosocomial Gram negative isolates, Athens 1998; type: cell-based; conditions: Escherichia coli; n = 57 isolates
[2] = test system: Streptococcus pneumoniae and Haemophilus influenzae; assay: MIC by broth microdilution (NCCLS), all isolates pooled; type: cell-based
Pseudomonas aeruginosa = assay: MIC by agar dilution (NCCLS), 322 nosocomial Gram negative isolates, Athens 1998; type: cell-based; conditions: n = 57 isolates
Klebsiella pneumoniae = assay: as above; type: cell-based; conditions: n = 56 isolates
Acinetobacter spp. = assay: as above; type: cell-based; conditions: n = 38 strains
Proteus mirabilis = assay: as above; type: cell-based; conditions: Proteus mirabilis; n = 57 isolates
Campylobacter jejuni [3] = assay: MIC by agar dilution (NCCLS M7-A4), 288 enteropathogenic isolates, gemifloxacin and 15 other antimicrobials; conditions: for MIC (mg/L) Range: Campylobacter jejuni N= 91; for MIC: Campylobacter jejuni
Morganella morganii = assay: MIC by NCCLS broth microdilution, 1100 Japanese clinical isolates 1997-1998; type: cell-based
Haemophilus influenzae = assay: MIC by NCCLS reference broth microdilution, 450 respiratory tract pathogens; type: cell-based; conditions: Haemophilus influenzae; for MIC90: read-out: MIC90
Providencia rettgeri = assay: MIC by NCCLS broth microdilution, 1100 Japanese clinical isolates 1997-1998; type: cell-based
Serratia marcescens = assay: as above; type: cell-based
Shigella spp. = assay: as above; type: cell-based; conditions: Shigella spp. (n=34)
Enterococcus faecalis [4] = assay: MIC by agar dilution (NCCLS), 411 isolates Buenos Aires 1998-99; type: cell-based; conditions: Enterococcus faecalis (n = 48)
Streptococcus pneumoniae = assay: as above; type: cell-based; conditions: for MIC / MIC90: Streptococcus pneumoniae; for MIC: Ciprofloxacin-resistant S. pneumoniae, read-out: MIC; for MIC90: read-out: MIC90
Proteus vulgaris = assay: MIC by NCCLS broth microdilution, 1100 Japanese clinical isolates 1997-1998; type: cell-based
Streptococcus pyogenes = assay: MIC by agar dilution (NCCLS), 411 isolates Buenos Aires 1998-99; type: cell-based; conditions: Streptococcus pyogenes (n = 69)
Enterococcus faecalis [5] = assay: MIC by NCCLS broth microdilution, 1100 Japanese clinical isolates 1997-1998; type: cell-based; conditions: for MIC50 / MIC90: Enterococcus faecalis; for MIC90: read-out: MIC90
[6] = Salmonella, S. tshiongwe (n = 1)
[7] = all (380) isolates tested (235 S. pneumoniae, 145 H. influenzae)
[8] = Haemophilus influenzae (n = 100)
[9] = Streptococcus pneumoniae (n = 90)
[10] = Enterococcus faecalis ciprofloxacin resistant (n=15)
[11] = Enterococcus faecalis ciprofloxacin susceptible (n=24)

SMILES: Cc1c(F)c(N2CCNC(C)C2)cc2c1c(=O)c(C(=O)O)cn2C1CC1 (stereo not drawn) [Grepafloxacin, grepafloxacin]
- MIC (Salmonella spp.; S. hadar (n = 2)): 1 µg/mL (≈ 2.78 µM)
- MIC (Salmonella spp.; S. newport (n = 1)): 1 µg/mL (≈ 2.78 µM)
- MIC (Salmonella spp.; S. virchow (n = 2)): 0.25 µg/mL (≈ 0.696 µM)
- % Susceptible (Salmonella spp.): 99%
- MIC50 (Salmonella spp.): 0.06 µg/mL (≈ 0.167 µM)
- MIC90 (Salmonella spp.): 0.25 µg/mL (≈ 0.696 µM)
- MIC Range (Salmonella spp.): 0.03 to 2 µg/mL
- MIC (Salmonella spp.; [6]): 2 µg/mL (≈ 5.56 µM)
- % Susceptible (Campylobacter jejuni [1]): 31.86%
- MIC50 (Campylobacter jejuni [1]): 32 µg/mL (≈ 89 µM)
- MIC90 (Campylobacter jejuni [1]): 64 µg/mL (≈ 178 µM)
- MIC Range (Campylobacter jejuni [1]): 0.03 to 128 µg/mL
- MIC (mg/L) Range (Aeromonas spp.): ≤0.015 to 0.12 mg/L
- MIC (Aeromonas spp.; read-out: MIC (mg/L) 50%): 0.03 mg/L (≈ 0.0835 µM)
- MIC (Aeromonas spp.; read-out: MIC (mg/L) 90%): 0.06 mg/L (≈ 0.167 µM)
- MIC50 (Escherichia coli): 0.06 µg/mL (≈ 0.167 µM)
- MIC90 (Escherichia coli): 0.25 µg/mL (≈ 0.696 µM)
- MIC90 [2, 7]: 0.12 µg/mL (≈ 0.334 µM)
- MIC90 ([2]; all isolates tested (602)): 0.12 µg/mL (≈ 0.334 µM)
- MIC50 (Pseudomonas aeruginosa): 1 µg/mL (≈ 2.78 µM)
- MIC90 (Pseudomonas aeruginosa): > 64 µg/mL
- MIC50 (Klebsiella pneumoniae; Klebsiella pneumoniae): 0.125 µg/mL (≈ 0.348 µM)
- MIC90 (Klebsiella pneumoniae; Klebsiella pneumoniae): 1 µg/mL (≈ 2.78 µM)
- MIC Range (Klebsiella pneumoniae): ≤0.03 to 64 µg/mL
- MIC50 (Acinetobacter spp.; Acinetobacter): 2 µg/mL (≈ 5.56 µM)
- MIC90 (Acinetobacter spp.; Acinetobacter): 64 µg/mL (≈ 178 µM)
- MIC Range (Acinetobacter spp.): ≤0.03 to 64 µg/mL
- MIC50 (Proteus mirabilis): 0.5 µg/mL (≈ 1.39 µM)
- MIC90 (Proteus mirabilis): 16 µg/mL (≈ 44.5 µM)
- MIC (mg/L) Range (Campylobacter jejuni [3]): 0.03 to 128 mg/L
- MIC (Campylobacter jejuni [3]; read-out: MIC (mg/L) 50%): 32 mg/L (≈ 89 µM)
- MIC (Campylobacter jejuni [3]; read-out: MIC (mg/L) 90%): 64 mg/L (≈ 178 µM)

SMILES: C[C@H]1COc2c(N3CCN(C)CC3)c(F)cc3c(=O)c(C(=O)O)cn1c23 [Levofloxacin, levofloxacin]
- MIC (Salmonella spp.; S. hadar (n = 2)): 1 µg/mL (≈ 2.77 µM)
- MIC (Salmonella spp.; S. newport (n = 1)): 1 µg/mL (≈ 2.77 µM)
- MIC (Salmonella spp.; S. virchow (n = 2)): 0.25 µg/mL (≈ 0.692 µM)
- % Susceptible (Salmonella spp.): 100%
- MIC50 (Salmonella spp.): 0.06 µg/mL (≈ 0.166 µM)
- MIC90 (Salmonella spp.): 0.25 µg/mL (≈ 0.692 µM)
- MIC Range (Salmonella spp.): 0.06 to 1 µg/mL
- MIC (Salmonella spp.; [6]): 1 µg/mL (≈ 2.77 µM)
- MIC90 (Morganella morganii; Morganella morganii): 0.125 µg/mL (≈ 0.346 µM)
- MIC Range (Morganella morganii; Morganella morganii (n=40)): 0.016 to 8 µg/mL
- MIC50 (Morganella morganii; Morganella morganii (n=40), read-out: MIC50): 0.032 µg/mL (≈ 0.0886 µM)
- MIC (Haemophilus influenzae; [8]): 0.0075 to 0.5 µg/mL (≈ 0.0208 to 1.38 µM)
- MIC50 (Haemophilus influenzae; [8]): 0.015 µg/mL (≈ 0.0415 µM)
- MIC90 (Haemophilus influenzae; [8]): 0.03 µg/mL (≈ 0.083 µM)
- MIC (Haemophilus influenzae; β-lactamase negative (n = 80)): 0.0075 to 0.5 µg/mL (≈ 0.0208 to 1.38 µM)
- MIC50 (Haemophilus influenzae; β-lactamase negative (n = 80)): 0.015 µg/mL (≈ 0.0415 µM)
- MIC90 (Haemophilus influenzae; β-lactamase negative (n = 80)): 0.015 µg/mL (≈ 0.0415 µM)
- MIC (Haemophilus influenzae; β-lactamase positive (n = 20)): 0.0075 to 0.03 µg/mL (≈ 0.0208 to 0.083 µM)
- MIC50 (Haemophilus influenzae; β-lactamase positive (n = 20)): 0.015 µg/mL (≈ 0.0415 µM)
- MIC90 (Haemophilus influenzae; β-lactamase positive (n = 20)): 0.03 µg/mL (≈ 0.083 µM)
- % Susceptible (Campylobacter jejuni [1]): 31.86%
- MIC50 (Campylobacter jejuni [1]): 8 µg/mL (≈ 22.1 µM)
- MIC90 (Campylobacter jejuni [1]): 32 µg/mL (≈ 88.6 µM)
- MIC Range (Campylobacter jejuni [1]): 0.06 to 128 µg/mL
- MIC (mg/L) Range (Aeromonas spp.): ≤0.015 to 0.06 mg/L
- MIC (Aeromonas spp.; read-out: MIC (mg/L) 50%): ≤ 0.015 mg/L
- MIC (Aeromonas spp.; read-out: MIC (mg/L) 90%): ≤ 0.015 mg/L
- MIC50 (Providencia rettgeri; Providencia rettgeri): 0.125 µg/mL (≈ 0.346 µM)
- MIC90 (Providencia rettgeri; Providencia rettgeri (n=12)): 8 µg/mL (≈ 22.1 µM)
- MIC Range (Providencia rettgeri; Providencia rettgeri (n=12)): 0.125 to 8 µg/mL
- MIC50 (Serratia marcescens; Serratia marcescens): 0.125 µg/mL (≈ 0.346 µM)
- MIC90 (Serratia marcescens; Serratia marcescens (n=30)): 0.5 µg/mL (≈ 1.38 µM)
- MIC Range (Serratia marcescens; Serratia marcescens (n=30)): 0.063 to 32 µg/mL
- MIC90 [2, 7]: 1 µg/mL (≈ 2.77 µM)
- MIC90 ([2]; all isolates tested (602)): 1 µg/mL (≈ 2.77 µM)
- MIC50 (Shigella spp.): 0.016 µg/mL (≈ 0.0443 µM)
- MIC90 (Shigella spp.): 0.063 µg/mL (≈ 0.174 µM)
- MIC Range (Shigella spp.): 0.016 to 0.063 µg/mL
- MIC90 (Enterococcus faecalis [4]): > 32 µg/mL
- MIC (mg/L) Range (Campylobacter jejuni [3]): 0.06 to 128 mg/L
- MIC (Campylobacter jejuni [3]; read-out: MIC (mg/L) 50%): 8 mg/L (≈ 22.1 µM)
- MIC (Campylobacter jejuni [3]; read-out: MIC (mg/L) 90%): 32 mg/L (≈ 88.6 µM)
- MIC Range (Streptococcus pneumoniae; [9]): 0.25 to 4 µg/mL
- MIC (Streptococcus pneumoniae; Strain 1): 1 µg/mL (≈ 2.77 µM)
- MIC (Streptococcus pneumoniae; Strain 2): 1 µg/mL (≈ 2.77 µM)
- MIC (Streptococcus pneumoniae; Strain 3): 4 µg/mL (≈ 11.1 µM)
- MIC (Streptococcus pneumoniae; Strain 4): 2 µg/mL (≈ 5.53 µM)
- MIC90 (Streptococcus pneumoniae; S. pneumoniae, Penicillin intermediate (n = 17)): 1 µg/mL (≈ 2.77 µM)
- MIC90 (Streptococcus pneumoniae; S. pneumoniae, Penicillin resistant (n = 4)): 1 µg/mL (≈ 2.77 µM)
- MIC90 (Streptococcus pneumoniae; S. pneumoniae, Penicillin susceptible (n = 69)): 1 µg/mL (≈ 2.77 µM)
- MIC90 (Streptococcus pneumoniae; [9]): 1 µg/mL (≈ 2.77 µM)
- MIC90 (Proteus vulgaris; Proteus vulgaris): 0.125 µg/mL (≈ 0.346 µM)
- MIC Range (Proteus vulgaris; Proteus vulgaris (n=25)): 0.032 to 1 µg/mL
- MIC50 (Proteus vulgaris; Proteus vulgaris (n=25), read-out: MIC50): 0.063 µg/mL (≈ 0.174 µM)
- MIC Range (Streptococcus pyogenes): 0.25 to 2 µg/mL
- MIC Range (Enterococcus faecalis [5]; [10]): 2 to 32 µg/mL
- MIC Range (Enterococcus faecalis [5]; [11]): 1 to 2 µg/mL
- MIC50 (Enterococcus faecalis [5]; [10]): 16 µg/mL (≈ 44.3 µM)
- MIC90 (Enterococcus faecalis [5]; [10]): 32 µg/mL (≈ 88.6 µM)
- MIC50 (Enterococcus faecalis [5]; [11]): 1 µg/mL (≈ 2.77 µM)
- MIC90 (Enterococcus faecalis [5]; [11]): 2 µg/mL (≈ 5.53 µM)
